Experiments:
prothrombinase complex = prothrombinase complex (Homo sapiens, UniProt P00742); assay: prothrombinase inhibition assay (IIASE); type: biochemical; settings: plasma free system, Chromozym TH
Procedure: The prothrombinase inhibition assay is performed in a plasma free system with modifications to the method described by Sinha, U. et al., Thromb. […] Specifically, the activity of the prothrombinase complex is determined by measuring the time course of thrombin generation using the p-nitroanilide substrate Chromozym TH. […] Aliquots from the complex-inhibitor mixture are added to prothrombin (1 nM) and Chromozym TH (0.1 mM). […] Eight different concentrations of inhibitor are assayed in duplicate. A standard curve of thrombin generation by an equivalent amount of untreated complex is used for determination of percent inhibition.

TRYPSIN = target: T1, TRYPSIN (Bos taurus, UniProt P00760); assay: trypsin protease inhibition; type: biochemical
T1 construct: gene PRSS1
T1 sequence (P00760 24-246): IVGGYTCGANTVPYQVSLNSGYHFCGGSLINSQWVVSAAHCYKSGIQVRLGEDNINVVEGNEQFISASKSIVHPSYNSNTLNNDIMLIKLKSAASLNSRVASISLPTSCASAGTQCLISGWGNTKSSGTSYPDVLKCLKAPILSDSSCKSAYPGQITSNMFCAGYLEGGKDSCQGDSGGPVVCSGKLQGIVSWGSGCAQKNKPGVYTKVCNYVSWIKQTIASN

factor Xa = factor Xa (Homo sapiens, UniProt P00742); assay: factor Xa amidolytic assay (XA)
factor Xa, sequence (P00742 235-488 limits assumed): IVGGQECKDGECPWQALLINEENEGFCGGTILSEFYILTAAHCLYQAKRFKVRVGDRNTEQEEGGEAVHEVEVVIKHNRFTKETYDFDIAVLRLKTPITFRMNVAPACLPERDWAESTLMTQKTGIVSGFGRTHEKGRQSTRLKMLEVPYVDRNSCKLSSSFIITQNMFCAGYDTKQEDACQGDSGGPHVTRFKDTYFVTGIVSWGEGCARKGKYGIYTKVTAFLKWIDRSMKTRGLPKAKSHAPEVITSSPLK
factor Xa, sequence (P00742 41-179 limits assumed): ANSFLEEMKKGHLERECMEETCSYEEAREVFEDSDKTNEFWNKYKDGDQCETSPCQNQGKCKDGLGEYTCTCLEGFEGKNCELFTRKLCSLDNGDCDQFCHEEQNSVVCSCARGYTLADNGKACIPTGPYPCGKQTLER
Procedure: (§1) In the assays for thrombin, prothrombinase and factor Xa, a synthetic chromogenic substrate is added to a solution containing test compound and the enzyme of interest and the residual catalytic activity of that enzyme is determined spectrophotometrically. The IC50 of a compound is determined from the substrate turnover. […] The factor Xa and thrombin assays are performed at room temperature, in 0.02 M Tris·HCl buffer, pH 7.5, containing 0.15 M NaCl.

thrombin = thrombin (Homo sapiens, UniProt P00734); assay: thrombin amidolytic assay (IIA)
Procedure: as §1

prothrombinase complex, sequence (P00742 235-488 limits assumed): as the sequence (P00742 235-488 limits assumed) above
prothrombinase complex, sequence (P00742 41-179 limits assumed): as the sequence (P00742 41-179 limits assumed) above
prothrombinase complex, sequence (P12259 29-737 partner limits assumed): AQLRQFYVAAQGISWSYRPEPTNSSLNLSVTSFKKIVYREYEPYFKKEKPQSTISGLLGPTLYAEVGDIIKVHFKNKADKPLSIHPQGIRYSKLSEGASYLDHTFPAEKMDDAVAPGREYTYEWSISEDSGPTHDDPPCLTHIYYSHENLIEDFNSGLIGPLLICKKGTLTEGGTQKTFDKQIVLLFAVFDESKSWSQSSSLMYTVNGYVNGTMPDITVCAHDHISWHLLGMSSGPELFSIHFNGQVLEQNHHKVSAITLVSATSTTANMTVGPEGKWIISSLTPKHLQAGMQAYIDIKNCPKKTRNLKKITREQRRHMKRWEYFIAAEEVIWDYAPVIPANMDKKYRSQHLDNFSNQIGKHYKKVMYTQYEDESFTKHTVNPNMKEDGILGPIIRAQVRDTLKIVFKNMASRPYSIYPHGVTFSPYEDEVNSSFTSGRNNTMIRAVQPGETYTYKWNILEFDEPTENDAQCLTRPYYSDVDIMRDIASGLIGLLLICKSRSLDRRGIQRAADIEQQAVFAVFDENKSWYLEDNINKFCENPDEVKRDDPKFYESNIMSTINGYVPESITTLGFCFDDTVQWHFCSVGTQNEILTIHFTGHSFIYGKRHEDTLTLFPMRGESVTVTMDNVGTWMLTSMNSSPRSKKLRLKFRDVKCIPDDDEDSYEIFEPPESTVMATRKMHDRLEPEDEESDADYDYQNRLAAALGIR
prothrombinase complex, sequence (P12259 1574-2224 partner limits assumed): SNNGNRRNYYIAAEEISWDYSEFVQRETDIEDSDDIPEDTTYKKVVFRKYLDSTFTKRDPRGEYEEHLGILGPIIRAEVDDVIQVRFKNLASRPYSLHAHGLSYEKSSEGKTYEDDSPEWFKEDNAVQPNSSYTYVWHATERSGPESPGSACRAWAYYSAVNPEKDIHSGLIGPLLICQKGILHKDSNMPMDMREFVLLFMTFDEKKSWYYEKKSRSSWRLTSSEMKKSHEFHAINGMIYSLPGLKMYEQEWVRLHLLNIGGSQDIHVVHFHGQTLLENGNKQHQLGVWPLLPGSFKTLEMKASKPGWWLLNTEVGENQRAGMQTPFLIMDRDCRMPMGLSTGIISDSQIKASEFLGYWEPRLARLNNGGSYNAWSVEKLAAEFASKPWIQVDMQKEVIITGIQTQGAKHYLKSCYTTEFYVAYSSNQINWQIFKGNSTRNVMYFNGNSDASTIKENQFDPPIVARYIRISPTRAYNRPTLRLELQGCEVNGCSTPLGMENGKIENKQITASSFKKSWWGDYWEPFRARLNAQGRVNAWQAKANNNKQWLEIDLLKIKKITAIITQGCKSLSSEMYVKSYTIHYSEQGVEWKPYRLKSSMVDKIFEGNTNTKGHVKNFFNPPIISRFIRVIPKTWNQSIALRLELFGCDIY

Structure (SMILES) | IC50 (prothrombinase complex) [nM] | IC50 (TRYPSIN) [nM] | IC50 (factor Xa) [nM] | IC50 (thrombin) [nM]
CC(=N)N1CCC(Oc2ccc3c(ccc(=O)n3Cc3ccccc3-c3ccc(C(=N)N)cc3)c2)CC1 [Example 10] | 1200 | 52500 | 137000 | 995
CCn1c(Cn2c(=O)ccc3cc(OC4CCN(C(C)=N)CC4)ccc32)cc2ccc(C(=N)N)cc21 [Example 14] | 14.3 | 10.4 | 4.74 | 69.3
CC(=N)N1CCC(Oc2ccc3c(ccc(=O)n3Cc3cccc(-c4cccc(C(=N)N)c4)c3)c2)CC1 [Example 4] | 157 | 47.7 | 11.8 | 4560
N=C(N)c1ccc2ccc(Cn3c(=O)ccc4cc(OC5CCNCC5)ccc43)cc2c1 [Example 1] | 9110 | 77.2 | 151 | 122000
N=C(N)c1cccc(-c2ccccc2Cn2c(=O)ccc3cc(OC4CCNCC4)ccc32)c1 [Example 11] | 2180 | 289 | 41900 | 2480
N=C(N)c1ccc2ccc(Cn3c(=O)ccc4cc(OC5CCN(c6ncccn6)CC5)ccc43)cc2c1 [Example 18] | 3250 | 656 | 580 | 75000
CC(=N)N1CCC(Oc2ccc3c(ccc(=O)n3Cc3cccc(-c4ccc(C(=N)N)cc4)c3)c2)CC1 [Example 15] | 33500 | 3370 | 18800 | 30400
CCn1c(Cn2c(=O)ccc3cc(OC4CCN(C(C)=N)CC4)ccc32)cc2ccc(C(=N)NN)cc21 [Example 17] | 1210 | 832 | 514 | 11000
CC(=N)N1CCC(Oc2ccc3c(ccc(=O)n3Cc3ccc(-c4cccc(C(=N)N)c4)cc3)c2)CC1 [Example 7] | 362 | 4290 | 82.3 | 45000
CC(=N)N1CCC(Oc2ccc3c(ccc(=O)n3Cc3ccc(-c4ccc(C(=N)N)cc4)cc3)c2)CC1 [Example 13] | 8630 | 1910 | 50000 | 3000
N=C(N)c1cccc(-c2cccc(Cn3c(=O)ccc4cc(OC5CCNCC5)ccc43)c2)c1 [Example 5] | 46300 | 263 | 1570 | 6590
N=C(N)c1ccc(-c2ccccc2Cn2c(=O)ccc3cc(OC4CCNCC4)ccc32)cc1 [Example 8] | 1920 | 56600 | 501000 | 1700
CN1CCC(Oc2ccc3c(ccc(=O)n3Cc3ccc4ccc(C(=N)N)cc4c3)c2)CC1 [Example 16] | 2580 | 315 | 209 | 399000
CC(=N)N1CCC(Oc2ccc3c(ccc(=O)n3Cc3ccccc3-c3cccc(C(=N)N)c3)c2)CC1 [Example 9] | 697 | 847 | 2550 | –
N=C(N)c1ccc(-c2ccc(Cn3c(=O)ccc4cc(OC5CCNCC5)ccc43)cc2)cc1 [Example 12] | 15500 | 4410 | 70000 | 9130
N=C(N)c1cccc(-c2ccc(Cn3c(=O)ccc4cc(OC5CCNCC5)ccc43)cc2)c1 [Example 6] | 38200 | 3630 | 4940 | 58800

— US6777413B2, “2-[1H]-quinolone and 2-[1H]-quinoxalone inhibitors of factor Xa” (Millennium Pharmaceuticals, Inc., priority 2000, dated 2004)
